The test system of experiment [1] is Mab 2G12. Nature of the experiment: BIACore (SPR) binding of Mab 2G12 to mimotopes displayed on phage captured by anti-M13 antibody. Details: species or system human. The note with it: round three phage-displayed mimotope (pIII) captured via anti-M13 on RAMFc CM5 chip; 25 μl Mab 2G12 at 100 μg/ml. On the procedure:
BIACore confirmation of mimotope binding to Mab 2G12 was determined for four of the identified peptide sequences disclosed in the present application. For the first assay, a batch of individually selected phage was prepared from the transduced E. coli cells described in Example 2. The phage were concentrated by PEG precipitation to be used in the assay. Initially, a murine anti-phage pVIII monoclonal antibody (anti-M13) is captured by a BIACore CM5 chip that is coated with a standard rabbit anti-mouse (Fc) antibody (RAMFc). The anti-M13 antibody captures the chimeric phage selected from the panning procedure described in Example 2. Mab 2G12 is then flowed over the chip in order to describe and confirm binding of the antibody to the captured chimeric phage pIII.
Specifically, RAMFc was first immobilized on the gold surface of the BIACore CM5 chip (Uppsala, Sweden) containing dextran by amine coupling. Twenty-five microliters of anti-M13 antibody (Amersham Pharmacia Biotech, Piscataway, N.J.), at 1 mg/ml, was injected into the flowcell containing the chip at a flow rate of […] and captured by the immobilized RAMFc. The captured anti-M13 was measured in resonance units (RU). After completing the initial control tests of the flowcell, the chip was regenerated by injecting 10 μl of 20 mM HCL, 3 times, into the flowcell. To determine whether Mab 2G12 can detect the mimotopes isolated in the panning procedure described herein, 25 μl of anti-M13 at 1 mg/ml was first injected into the flowcell. Fifty microliters of the round three phage preparation of the mimotope sequence identified by SEQ ID NO:3, WKIPDHGIVVFSWFP, at >1×10^10 phage particles per ml, was injected into the flowcell. This was followed by 25 μl of Mab 2G12 at 100 μg/ml. The amount of Mab 2G12 captured on the chip was subsequently measured in RUs. This procedure was repeated for the following round three mimotopes: RSGHKVWVVSTKESS (SEQ ID NO:1), KCCFAESSRSGTGRY (SEQ ID NO:2) and VLRLMECHFQCVPSL (SEQ ID NO:4). […] Of the four mimotopes tested by this procedure, RSGHKVWVVSTKESS (SEQ ID NO:1) bound Mab 2G12 the tightest at 312 RUs. In comparison, KCCFAESSRSGTGRY (SEQ ID NO:2) bound at 120 RUs, WKIPDHGIVVFSWFP (SEQ ID NO:3) bound at 24 RUs, and VLRLMECHFQCVPSL (SEQ ID NO:4) bound at 17 RUs.

Experiment [2] relates to Mab 2G12. In words: BIACore (SPR) binding of Mab 2G12 to biotinylated synthetic mimotope peptides on streptavidin chip. The note with it: synthetic biotinylated mimotope peptide (500 μg/ml) on streptavidin chip; 100 μl Mab 2G12 at 0.25 μg/μl, 5 μl/min. Details: species or system human. The method, then: Surface plasmon resonance was also used to confirm the binding of synthetic mimotope peptides identified from the panning procedure described in Example 2 to Mab 2G12. In this assay, a solution of biotinylated mimotope peptide is injected into a flowcell containing a BIACore chip coated with streptavidin. The biotin-streptavidin interaction immobilizes the synthetic mimotope peptide on the chip surface. Mab 2G12 is then injected into the flowcell to determine if the antibody recognizes and is captured by the bound mimotope. Specifically, the streptavidin BIACore chip was warmed to room temperature for 30 minutes. The chip was then docked and primed 2× with HBS-EP (0.01M HEPES, pH 7.4, 0.15M NaCl, 3 mM EDTA, 0.005% Surfactant P20) and conditioned for three cycles with 1M NaCl/50 mM NaOH. Each synthesized, biotinylated mimotope peptide was diluted 1:2 in HBS (0.01M HEPES, pH 7.4) to a final concentration of 500 μg/ml. Seventy-five microliters of each mimotope peptide was then injected into the flowcell at a flow rate of 5 μl/min. Mab 2G12 was resuspended in sterile water to a concentration of 0.25 μg/μl, and 100 μl of the antibody was injected into the flowcell containing the captured synthetic peptide at a flow rate of 5 μl/min. The captured Mab2G12 was measure in RUs. Of the mimotopes tested by this procedure, the synthetic peptide represented by SEQ ID NO:3, WKIPDHGIVVFSWFP, bound Mab 2G12 the tightest at 1193 RUs. In comparison, RSGHKVWVVSTKESS (SEQ ID NO:1) bound at 117 RUs, VLRLMECHFQCVPSL (SEQ ID NO:4) bound at 133 RUs, and TLKSLPYRAVLGAQA (SEQ ID NO:5) bound at 37 RUs. […] Thus, the mimotope represented by SEQ ID NO:2 binds to Mab 2G12 more efficiently as a multivalent structure (e.g., when within the pIII on the tip of the filamentous phage particle).

The results in this text go back to patent publication US20060094017A1, “Immunogens for hiv vaccine” (priority 2003, published 2006).

For “KCCFAESSRSGTGRY (Synthetic peptide mimotope) [SEQ ID NO:2]”, the “amount of Mab 2G12 captured on the chip” value in experiment [1] came to 120 RUs. For the same sequence, the “captured Mab 2G12” value in experiment [2] is “no binding”.

Regarding “RSGHKVWVVSTKESS (Synthetic peptide mimotope) [SEQ ID NO:1]”, the “amount of Mab 2G12 captured on the chip” value in experiment [1] is reported as 312 RUs. Moreover, the “captured Mab 2G12” value in experiment [2] was 117 RUs.

For the sequence “TLKSLPYRAVLGAQA (Synthetic peptide mimotope) [SEQ ID NO:5]”, the “captured Mab 2G12” value in experiment [2] is given as 37 RUs.

For “VLRLMECHFQCVPSL (Synthetic peptide mimotope) [SEQ ID NO:4]”, in experiment [1], the “amount of Mab 2G12 captured on the chip” value is given as 17 RUs. The “captured Mab 2G12” value in experiment [2] is 133 RUs.

On to “WKIPDHGIVVFSWFP (Synthetic peptide mimotope) [SEQ ID NO:3]”, for which, in experiment [1], the “amount of Mab 2G12 captured on the chip” value stood at 24 RUs. Further, the “captured Mab 2G12” value in experiment [2] came to 1193 RUs.
